# Data as given in paper PMC11087525 (Scientific Reports, 2024).
# Key:
# [1] = system: SARS-CoV-2 Delta variant; type: cell-based
# [2] = system: SARS-CoV-2 Delta variant; conditions: cited from earlier work
compound,measurement,setting,value
"CC(C)(C)[C@H](NC(=O)C(F)(F)F)C(=O)N1C[C@H]2[C@@H]([C@H]1C(=O)N[C@H](C#N)C[C@@H]1CCNC1=O)C2(C)C [NMR, nirmatrelvir]",EC90 for the Delta variant multiplied by a factor of 3,[1],0.3 µg/mL
same,EC90 for the Delta variant,[2]; conversion of 0.149 µM,~ 100 ng/mL
same,EC90,[2]; used in PBPK simulation study,149 nM
